Measured values taken from PubChem BioAssay AID248 (DTP/NCI, 2004).
Several values for one entry are separate records, joined by “and”; a condition that tells them apart may be missing. Identical values can stand only once. Inconclusive results and toxic doses are left out. Cut-off read from the data, not from the text of the source: active = T/C of 150% or more; inactive = T/C below 125%.

System: L1210 leukemia ip in BDF1 mice, survival T/C
Assay: NCI In Vivo Anticancer Drug Screen. Data for tumor model L1210 Leukemia (intraperitoneal) in B6D2F1 (BDF1) mice
Settings: endpoint: mean survival time, higher = longer survival
In short: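 Survival endpoint. Drug-treated group vs vehicle group, expressed as T divided by C. Tumor passaged by transplantation.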

[1] = dose: 50.0 mg/kg/injection, schedule: Q01DX009 (ip), vehicle: saline with Tween-80
[2] = dose: 100.0 mg/kg/injection, schedule: Q01DX009 (ip), vehicle: saline with Tween-80
[3] = dose: 100.0 mg/kg/injection, schedule: Q04DX003 (ip), vehicle: saline with Tween-80
[4] = dose: 200.0 mg/kg/injection, schedule: Q01DX009 (ip), vehicle: saline with Tween-80
[5] = dose: 200.0 mg/kg/injection, schedule: Q04DX003 (ip), vehicle: saline with Tween-80
[6] = dose: 400.0 mg/kg/injection, schedule: Q01DX009 (ip), vehicle: saline with Tween-80
[7] = dose: 400.0 mg/kg/injection, schedule: Q04DX003 (ip), vehicle: saline with Tween-80
[8] = dose: 100.0 mg/kg/injection, schedule: Q04DX003 (ip), vehicle: saline
[9] = dose: 200.0 mg/kg/injection, schedule: Q04DX003 (ip), vehicle: saline
[10] = dose: 100.0 mg/kg/injection, schedule: Q04DX003 (ip), vehicle: Klucel (hydroxypropylcellulose) (HPC)
[11] = dose: 200.0 mg/kg/injection, schedule: Q04DX003 (ip), vehicle: Klucel (hydroxypropylcellulose) (HPC)
[12] = dose: 400.0 mg/kg/injection, schedule: Q04DX003 (ip), vehicle: Klucel (hydroxypropylcellulose) (HPC)

Measured: T/C

C/C=C(/C)C(=O)O[C@H]1CCN2CC=C(COC(=O)[C@@](O)([C@H](C)OC)C(C)(C)O)[C@H]12
inactive: dose: 5.0 mg/kg/injection, schedule: Q01DX001 (ip), vehicle: other 100 % of control | dose: 7.5 mg/kg/injection, schedule: Q04DX003 (ip), vehicle: Klucel (hydroxypropylcellulose) (HPC) 97 % of control | dose: 10.0 mg/kg/injection, schedule: Q01DX001 (ip), vehicle: other 105 % of control | dose: 15.0 mg/kg/injection, schedule: Q04DX003 (ip), vehicle: Klucel (hydroxypropylcellulose) (HPC) 103 % of control | dose: 20.0 mg/kg/injection, schedule: Q01DX001 (ip), vehicle: other 100 % of control | dose: 30.0 mg/kg/injection, schedule: Q04DX003 (ip), vehicle: Klucel (hydroxypropylcellulose) (HPC) 103 % of control | dose: 40.0 mg/kg/injection, schedule: Q01DX001 (ip), vehicle: other 102 % of control | dose: 60.0 mg/kg/injection, schedule: Q04DX003 (ip), vehicle: Klucel (hydroxypropylcellulose) (HPC) 97 % of control | dose: 80.0 mg/kg/injection, schedule: Q01DX001 (ip), vehicle: other 103 % of control

CCCCNC(C)(C)CSS(=O)(=O)O
inactive: [1] 97 % of control | [2] 109 % of control | [3] 96 % of control | [4] 103 % of control | [5] 96 % of control | [6] 103 % of control | [7] 96 % of control

CCOC(=O)c1c[n]([Hg][n]2cc(C(=O)OCC)c(Nc3ccccc3Br)nc2=O)c(=O)nc1Nc1ccccc1Br
inactive: dose: 3.0 mg/kg/injection, schedule: Q01DX009 (ip), vehicle: Klucel (hydroxypropylcellulose) (HPC) 95 % of control | dose: 6.0 mg/kg/injection, schedule: Q01DX009 (ip), vehicle: Klucel (hydroxypropylcellulose) (HPC) 93 % of control | dose: 6.25 mg/kg/injection, schedule: Q04DX003 (ip), vehicle: Klucel (hydroxypropylcellulose) (HPC) 96 % of control | dose: 12.0 mg/kg/injection, schedule: Q01DX009 (ip), vehicle: Klucel (hydroxypropylcellulose) (HPC) 96 % of control | dose: 12.5 mg/kg/injection, schedule: Q04DX003 (ip), vehicle: Klucel (hydroxypropylcellulose) (HPC) 96 % of control and 103 % of control | dose: 25.0 mg/kg/injection, schedule: Q04DX003 (ip), vehicle: Klucel (hydroxypropylcellulose) (HPC) 88 % of control | dose: 50.0 mg/kg/injection, schedule: Q04DX003 (ip), vehicle: Klucel (hydroxypropylcellulose) (HPC) 100 % of control

O=C(CC(O)(C(F)(F)F)C(F)(F)F)C(Cl)C(O)(C(F)(F)F)C(F)(F)F (stereo unspecified)
inactive: dose: 25.0 mg/kg/injection, schedule: Q01DX001 (ip), vehicle: other 104 % of control | dose: 50.0 mg/kg/injection, schedule: Q01DX001 (ip), vehicle: other 86 % of control

Cc1cc(Cl)c(C)c(C(=O)O)c1Cl
inactive: dose: 50.0 mg/kg/injection, schedule: Q01DX009 (ip), vehicle: saline 107 % of control | dose: 50.0 mg/kg/injection, schedule: Q04DX003 (ip), vehicle: saline 103 % of control | dose: 100.0 mg/kg/injection, schedule: Q01DX001 (ip), vehicle: saline 91 % of control | dose: 100.0 mg/kg/injection, schedule: Q01DX009 (ip), vehicle: saline 107 % of control | [8] 105 % of control | dose: 200.0 mg/kg/injection, schedule: Q01DX001 (ip), vehicle: saline 98 % of control | dose: 200.0 mg/kg/injection, schedule: Q01DX009 (ip), vehicle: saline 105 % of control | [9] 100 % of control

C(#CCN1CCCC1)CCCN1CCCC1
inactive: dose: 25.0 mg/kg/injection, schedule: Q01DX009 (ip), vehicle: saline with Tween-80 98 % of control | dose: 25.0 mg/kg/injection, schedule: Q04DX003 (ip), vehicle: saline with Tween-80 97 % of control | [1] 102 % of control | dose: 50.0 mg/kg/injection, schedule: Q04DX003 (ip), vehicle: saline with Tween-80 97 % of control | [2] 95 % of control | [3] 93 % of control and 98 % of control

COc1cc(/C=N\NC(=O)CC#N)cc(OC)c1OC
inactive: [1] 87 % of control | [2] 87 % of control | [4] 94 % of control

C=CCOc1ncnc2nc[nH]c12
inactive: [3] 102 % of control | [5] 96 % of control | [7] 101 % of control

OC12C3CCCC1CCCC2CCC3 (stereo unspecified)
inactive: dose: 100.0 mg/kg/injection, schedule: Q01DX009 (ip), vehicle: other 101 % of control | dose: 100.0 mg/kg/injection, schedule: Q01DX009 (ip), vehicle: saline sonified 103 % of control | [2] 110 % of control and 90 % of control | [10] 95 % of control and 106 % of control and 96 % of control | [8] 102 % of control | dose: 200.0 mg/kg/injection, schedule: Q01DX009 (ip), vehicle: other 94 % of control | dose: 200.0 mg/kg/injection, schedule: Q01DX009 (ip), vehicle: saline sonified 103 % of control | [4] 106 % of control and 89 % of control | [11] 108 % of control and 100 % of control and 96 % of control | [9] 102 % of control | dose: 400.0 mg/kg/injection, schedule: Q01DX009 (ip), vehicle: other 92 % of control | dose: 400.0 mg/kg/injection, schedule: Q01DX009 (ip), vehicle: saline sonified 92 % of control | [6] 95 % of control and 92 % of control | [12] 95 % of control and 104 % of control and 114 % of control | dose: 400.0 mg/kg/injection, schedule: Q04DX003 (ip), vehicle: saline 104 % of control

Cc1ccc(C)c(C2NC(=O)c3ccccc3N2)c1 (stereo unspecified)
inactive: dose: 100.0 mg/kg/injection, schedule: Q01DX009 (ip), vehicle: Klucel (hydroxypropylcellulose) (HPC) 102 % of control | [10] 106 % of control | dose: 200.0 mg/kg/injection, schedule: Q01DX009 (ip), vehicle: Klucel (hydroxypropylcellulose) (HPC) 106 % of control | [11] 90 % of control | dose: 400.0 mg/kg/injection, schedule: Q01DX009 (ip), vehicle: Klucel (hydroxypropylcellulose) (HPC) 103 % of control | [12] 93 % of control

Nc1nc(N)nc(C(c2ccccc2)c2ccccc2)n1
inactive: dose: 100.0 mg/kg/injection, schedule: Q04DX002 (ip), vehicle: Klucel (hydroxypropylcellulose) (HPC) 103 % of control | dose: 200.0 mg/kg/injection, schedule: Q04DX002 (ip), vehicle: Klucel (hydroxypropylcellulose) (HPC) 94 % of control | dose: 400.0 mg/kg/injection, schedule: Q04DX002 (ip), vehicle: Klucel (hydroxypropylcellulose) (HPC) 87 % of control

O=C(O)C(Oc1ccc(Cl)cc1)c1ccc(Cl)cc1 (stereo unspecified)
inactive: [10] 96 % of control | [11] 91 % of control
